In patent US6737383B1, “Herbicidal oxadiazolidines” (priority 1999, dated 2004):

Columns and labels:
[1] = tested on: corn; assay: Test B pre/postemergence corn; assay type: in vivo, Zea mays
Summary of the method: (§1)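 Response is a visual 0-to-10 score relative to untreated plants, where 0 means no effect and 10 means complete control, taken twelve to sixteen days after application. Treatments went onto soil at planting and onto foliage of 1- to 4-leaf plants, using a surfactant-containing non-phytotoxic solvent.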

[2] = tested on: wild oat; assay: Test B pre/postemergence wild oat; assay type: in vivo, Avena fatua
Summary of the method: as §1

[3] = tested on: soybean; assay: Test B pre/postemergence soybean; assay type: in vivo, Glycine max
Summary of the method: as §1

[4] = tested on: rape; assay: Test B pre/postemergence rape; assay type: in vivo, Brassica napus
Summary of the method: as §1

[5] = tested on: surinam grass; assay: Test B pre/postemergence surinam grass; assay type: in vivo, Brachiaria decumbens
Summary of the method: as §1

[6] = tested on: smallflower flatsedge; assay: Test B flood test smallflower flatsedge; assay type: in vivo, Cyperus difformis
Summary of the method: (§2)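 Read-out is a visual response score from 0 (no effect) to 10 (complete control), assigned by comparison with untreated controls. Treatment was applied at the 2-leaf stage, and plants stayed in the greenhouse for twelve to sixteen days before scoring.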

[7] = tested on: purple nutsedge; assay: Test B pre/postemergence purple nutsedge; assay type: in vivo, Cyperus rotundus
Summary of the method: as §1

[8] = tested on: duck salad; assay: Test B flood test duck salad; assay type: in vivo, Heteranthera limosa
Summary of the method: as §2

[9] = tested on: bamyardgrass; assay: Test B flood test barnyardgrass; assay type: in vivo, Echinochloa crus-galli
Summary of the method: as §2

[10] = tested on: cocklebur; assay: Test B pre/postemergence cocklebur; assay type: in vivo, Xanthium strumarium
Summary of the method: as §1

[11] = tested on: sugar beet; assay: Test B pre/postemergence sugar beet; assay type: in vivo, Beta vulgaris
Summary of the method: as §1

[12] = tested on: pigweed; assay: Test B pre/postemergence pigweed; assay type: in vivo, Amaranthus retroflexus
Summary of the method: as §1

[13] = tested on: rice; assay: Test B flood test rice; assay type: in vivo, Oryza sativa
Summary of the method: as §2

[14] = tested on: crabgrass; assay: Test B pre/postemergence crabgrass; assay type: in vivo, Digitaria sanguinalis
Summary of the method: as §1

[15] = tested on: giant foxtail; assay: Test B pre/postemergence giant foxtail; assay type: in vivo, Setaria faberii
Summary of the method: as §1

[16] = tested on: morningglory; assay: Test B pre/postemergence morningglory; assay type: in vivo, Ipomoea hederacea
Summary of the method: as §1

[17] = Postemergence, Rate 250 g/ha, scale 0 to 10, 0 no effect, 10 complete control
[18] = Postemergence, Rate 1000 g/ha, scale 0 to 10 (0 no effect, 10 complete control)
[19] = Preemergence, Rate 125 g/ha, scale 0 to 10 (0 no effect, 10 complete control)
[20] = Preemergence, Rate 250 g/ha, scale of 0 to 10 where 0 is no effect and 10 is complete control
[21] = Preemergence, Rate 500 g/ha, scale 0 (no effect) to 10 (complete control)
[22] = Rate 125 g/ha, Postemergence, scale 0 to 10, 0 no effect, 10 complete control
[23] = Rate 500 g/ha, Postemergence, 0 to 10 scale (0 no effect, 10 complete control)
[24] = Rate 1000 g/ha, Preemergence, scale 0 to 10 (0 no effect, 10 complete control)
[25] = Rate 125 g/ha, Postemergence section (flood test species), scale 0 to 10, 0 no effect, 10 complete control
[26] = flood test, listed under Postemergence, Rate 250 g/ha, scale 0 to 10, 0 no effect, 10 complete control
[27] = Rate 500 g/ha, Postemergence section of Table B, 0 to 10 scale (0 no effect, 10 complete control)

COc1ccc(-n2c(=O)on(C(=O)N(c3ccc(F)cc3)C(C)C)c2=O)cc1 [Compound 5]
Corn plant response rating [1, 17]: 0 | Corn plant response rating [1, 18]: 0 | Plant response rating, Corn [1, 19]: 0 | Plant response rating, Corn [1, 20]: 0 | Corn plant response rating [1, 21]: 0 | Corn plant response rating [1, 22]: 0 | Corn plant response rating [1, 23]: 0 | Plant response rating, Corn [1, 24]: 0 | Wild oats plant response rating [2, 17]: 1 | Wild oats plant response rating [2, 18]: 1 | Plant response rating, Wild oats [2, 19]: 0 | Plant response rating, Wild oats [2, 20]: 6 | Wild oats plant response rating [2, 21]: 6 | Wild oats plant response rating [2, 22]: 0 | Plant response rating, Wild oats [2, 24]: 6 | Soybean plant response rating [3, 17]: 5 | Soybean plant response rating [3, 18]: 6 | Plant response rating, Soybean [3, 19]: 0 | Plant response rating, Soybean [3, 20]: 0 | Soybean plant response rating [3, 21]: 0 | Soybean plant response rating [3, 22]: 5 | Plant response rating, Soybean [3, 24]: 0 | Rape plant response rating [4, 17]: 5 | Rape plant response rating [4, 18]: 5 | Plant response rating, Rape [4, 19]: 0 | Plant response rating, Rape [4, 20]: 0 | Rape plant response rating [4, 21]: 0 | Rape plant response rating [4, 22]: 5 | Rape plant response rating [4, 23]: 4 | Plant response rating, Rape [4, 24]: 0 | B. signalgrass plant response rating [5, 17]: 0 | B. signalgrass plant response rating [5, 18]: 4 | Plant response rating, B. signalgrass [5, 19]: 3 | Plant response rating, B. signalgrass [5, 20]: 3 | B. signalgrass plant response rating [5, 21]: 3 | B. signalgrass plant response rating [5, 22]: 0 | B. signalgrass plant response rating [5, 23]: 0 | Plant response rating, B. signalgrass [5, 24]: 8 | S. Flatsedge plant response rating [6, 18]: 2 | S. Flatsedge plant response rating [6, 25]: 0 | S. Flatsedge plant response rating [6, 26]: 0 | Nutsedge plant response rating [7, 17]: 0 | Nutsedge plant response rating [7, 18]: 0 | Plant response rating, Nutsedge [7, 19]: 0 | Plant response rating, Nutsedge [7, 20]: 0 | Nutsedge plant response rating [7, 21]: 0 | Nutsedge plant response rating [7, 22]: 0 | Nutsedge plant response rating [7, 23]: 0 | Plant response rating, Nutsedge [7, 24]: 0 | Ducksalad plant response rating [8, 18]: 0 | Ducksalad plant response rating [8, 25]: 0 | Ducksalad plant response rating [8, 27]: 0 | Ducksalad plant response rating [8, 26]: 0 | Barnyardgrass plant response rating [9, 18]: 4 | Barnyardgrass plant response rating [9, 25]: 0 | Barnyardgrass plant response rating [9, 27]: 2 | Barnyardgrass plant response rating [9, 26]: 0 | Cocklebur plant response rating [10, 17]: 5 | Cocklebur plant response rating [10, 18]: 8 | Plant response rating, Cocklebur [10, 19]: 0 | Plant response rating, Cocklebur [10, 20]: 0 | Cocklebur plant response rating [10, 21]: 0 | Cocklebur plant response rating [10, 22]: 5 | Cocklebur plant response rating [10, 23]: 5 | Plant response rating, Cocklebur [10, 24]: 0 | Sugarbeets plant response rating [11, 17]: 4 | Sugarbeets plant response rating [11, 18]: 7 | Plant response rating, Sugarbeets [11, 19]: 0 | Plant response rating, Sugarbeets [11, 20]: 0 | Sugarbeets plant response rating [11, 21]: 0 | Sugarbeets plant response rating [11, 22]: 3 | Plant response rating, Sugarbeets [11, 24]: 0 | Redroot pigweed plant response rating [12, 17]: 7 | Redroot pigweed plant response rating [12, 18]: 8 | Plant response rating, Redroot pigweed [12, 19]: 6 | Plant response rating, Redroot pigweed [12, 20]: 7 | Redroot pigweed plant response rating [12, 21]: 7 | Redroot pigweed plant response rating [12, 22]: 7 | Redroot pigweed plant response rating [12, 23]: 7 | Plant response rating, Redroot pigweed [12, 24]: 10 | Rice plant response rating [13, 18]: 0 | Rice plant response rating [13, 25]: 0 | Rice plant response rating [13, 27]: 0 | Rice plant response rating [13, 26]: 0 | Crabgrass plant response rating [14, 17]: 6 | Crabgrass plant response rating [14, 18]: 6 | Plant response rating, Crabgrass [14, 19]: 3 | Plant response rating, Crabgrass [14, 20]: 3 | Crabgrass plant response rating [14, 21]: 6 | Crabgrass plant response rating [14, 22]: 3 | Crabgrass plant response rating [14, 23]: 6 | Plant response rating, Crabgrass [14, 24]: 7 | Giant foxtail plant response rating [15, 17]: 7 | Giant foxtail plant response rating [15, 18]: 7 | Plant response rating, Giant foxtail [15, 19]: 7 | Plant response rating, Giant foxtail [15, 20]: 8 | Giant foxtail plant response rating [15, 21]: 9 | Giant foxtail plant response rating [15, 22]: 1 | Giant foxtail plant response rating [15, 23]: 4 | Plant response rating, Giant foxtail [15, 24]: 10 | Morningglory plant response rating [16, 17]: 3 | Morningglory plant response rating [16, 18]: 9 | Plant response rating, Morningglory [16, 19]: 0 | Plant response rating, Morningglory [16, 20]: 0 | Morningglory plant response rating [16, 21]: 0 | Morningglory plant response rating [16, 22]: 2 | Plant response rating, Morningglory [16, 24]: 0
